Data: article PMC9977294, “A parasitic fungus employs mutated eIF4A to survive on rocaglate-synthesizing Aglaia plants” (eLife, 2023)
“And” between values parts separate entries of the source, which are not always exact repeats. Equal values may be shown once.

Key:
[1] = system: C. orbiculare eIF4A^His153Gly; assay: In planta fungal biomass on cucumber cotyledons (RT-qPCR); assay type: in vivo, Colletotrichum orbiculare; conditions: cucumber leaves; 1 µM aglafoline; 3 dpi; Figure 4B
Description: Fungal inoculation was performed as previously described ([Hiruma and Saijo, 2016]; [Kumakura et al., 2019]) with modifications. Cucumber cotyledons were used for C. orbiculare inoculation. Seeds of cucumber, Cucumis sativus Suyo strain (Sakata Seed Corp.), were planted on a mix of equal amounts of vermiculite (VS Kakou) and Supermix A (Sakata Seed Corp.). Cucumbers were grown at 24°C under a 10 hr light/14 hr dark cycle using biotrons (NK Systems). Cotyledons were detached from seedlings of cucumbers and inoculated with C. orbiculare at 13 days post-germination. C. orbiculare strains (eIF4A^WT#1 and eIF4A^H153G#1, Supplementary file 4) were cultured on 100 ml of 3.9% PDA in a 300 ml flask at 25°C for 6 days in the dark. Conidia that appeared on the surface of PDA were suspended in 20 ml of sterilized water, filtered through cell strainers (100 µm pore size, Corning), pelleted by centrifugation at 760 × g for 5 min, and resuspended in sterilized water. The concentration of conidia was measured with disposable hemacytometers (Funakoshi) and adjusted to 10^5 conidia/ml with or without aglafoline (1 µM). […]
Relative expression levels of the C. orbiculare 60S ribosomal protein L5 gene (GenBank: Cob_v012718) ([Gan et al., 2013]) normalized to that of a cucumber cyclophilin gene (GenBank: AY942800.1) ([Liang et al., 2018]) were determined. […]

[2] = target: T1, H. sapiens eIF4A1 WT (Homo sapiens, UniProt P60842); assay: In vitro translation assay in reconstituted system with human factors; assay type: biochemical; conditions: for translation of reporter mRNA, Mean / translation of reporter mRNA, replicates: CAA repeats reporter, value at 0 μM RocA = 1
T1 construct: His tag (N); made in house; host or cells: E. coli BL21 Star (DE3)
Description: (§1) The DNA fragments PCR-amplified from psiCHECK2−7×AGAGAG motifs or psiCHECK2-CAA repeats ([Iwasaki et al., 2016]) were used as a template for in vitro transcription with a T7-Scribe Standard RNA IVT Kit ([…]). RNA was capped and poly(A) tailed with a ScriptCap m^7G Capping System, a ScriptCap 2′-O-Methyltransferase Kit, and an A-Plus Poly(A) Polymerase Tailing Kit ([…]).
(§2) The reconstitution system for human translation has been described previously ([Iwasaki et al., 2019]; [Machida et al., 2018]; [Yokoyama et al., 2019]). The in vitro translation reaction and luciferase assay were performed as previously described ([Iwasaki et al., 2019]) with some modifications. The final concentrations of mRNA and the eIF4A protein were 60 ng/µl and 2.16 µM, respectively. The translation mixture was incubated for 2.5 hr. The fluorescence signal was detected using the Renilla-Glo Luciferase Assay System (Promega) and measured in an EnVision 2104 plate reader (PerkinElmer).

[3] = target: T2, H. sapiens eIF4A1 Phe163Gly (Homo sapiens, UniProt P60842, F163G); assay: as above; assay type: biochemical; conditions: for translation of reporter mRNA, Mean / translation of reporter mRNA, replicates: CAA repeats reporter, value at 0 μM RocA = 1
T2 construct: His tag (N); made in house; host or cells: E. coli BL21 Star (DE3)
Description: as §1, §2

[4] = system: Ophiocordyceps sp. BRM1 eIF4A WT; assay: In vitro translation in RRL with complex-preformed mRNAs; assay type: biochemical; conditions: reporter mRNA with polypurine motifs preincubated with eIF4A and 9.1 µM RocA, free RocA removed; Figure 3B
Description: as §1
(§3) Then, 4 µl of complex-preformed mRNA was incubated with 50% RRL (Promega) in a 10 µl reaction volume for 1 hr at 30°C, according to the manufacturer’s instructions. The fluorescence signal was detected using the Renilla-Glo Luciferase Assay System (Promega) and measured with the GloMax Navigator System (Promega). In the control experiments, instead of recombinant eIF4A proteins, storage buffer was used. Moreover, recombinant eIF4A proteins were added to the G-25 flowthrough solution in place of the storage buffer.

[5] = system: Ophiocordyceps sp. BRM1 eIF4A Gly172His; assay: as above; assay type: biochemical; conditions: reporter mRNA with polypurine motifs preincubated with eIF4A and 9.1 µM RocA, free RocA removed; Figure 3B
Description: as §1, §3

T1 sequence (P60842 whole entry): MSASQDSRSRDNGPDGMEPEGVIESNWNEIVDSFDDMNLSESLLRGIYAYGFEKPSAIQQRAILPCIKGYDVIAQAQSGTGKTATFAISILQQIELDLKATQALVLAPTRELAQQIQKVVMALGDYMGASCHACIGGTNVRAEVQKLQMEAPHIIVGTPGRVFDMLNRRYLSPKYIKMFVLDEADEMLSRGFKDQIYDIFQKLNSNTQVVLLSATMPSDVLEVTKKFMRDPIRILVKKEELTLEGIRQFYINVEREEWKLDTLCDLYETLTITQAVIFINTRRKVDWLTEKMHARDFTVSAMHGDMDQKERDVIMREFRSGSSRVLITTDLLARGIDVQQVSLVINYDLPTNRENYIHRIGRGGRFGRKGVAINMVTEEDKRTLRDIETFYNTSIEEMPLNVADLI
T2 sequence (P60842 whole entry F163G): as the sequence (P60842 whole entry) above, with F163G counted along it

`COC(=O)[C@H]1[C@@H](O)[C@@]2(O)c3c(OC)cc(OC)cc3O[C@@]2(c2ccc(OC)cc2)[C@@H]1c1ccccc1` [Aglafoline, methyl rocaglate] was tested, and the “in planta fungal biomass” value [1] was “resulted in rocaglate resistance in the fungi”.
With `COc1ccc([C@@]23Oc4cc(OC)cc(OC)c4[C@]2(O)[C@H](O)[C@H](C(=O)N(C)C)[C@H]3c2ccccc2)cc1` [RocA, rocaglamide A] the “translation of reporter mRNA, Mean” value ([2]; RocA 0.1 μM) was 1.2394, the “translation of reporter mRNA, replicates” value ([2]; RocA 0.1 μM) was 0.9075 and 1.715 and 1.095 and the “translation of reporter mRNA, Mean” value ([2]; RocA 1 μM) was 1.148. The “translation of reporter mRNA, replicates” value ([2]; RocA 1 μM) was 0.7715 and 1.702 and 0.9709, the “translation of reporter mRNA, Mean” value ([2]; RocA 10 μM) was 1.012 and the “translation of reporter mRNA, replicates” value ([2]; RocA 10 μM) was 0.7743 and 1.31 and 0.9501. For the same compound, the “translation of reporter mRNA” value ([2]; polypurine motif-possessing reporter mRNA, Figure 3A) was “translation reduction from polypurine motif-possessing reporter mRNA”, the “translation of reporter mRNA, Mean” value ([3]; RocA 0.1 μM) was 1.06 and the “translation of reporter mRNA, replicates” value ([3]; RocA 0.1 μM) was 0.8871 and 1.301 and 0.9923. For the same compound, the “translation of reporter mRNA, Mean” value ([3]; RocA 1 μM) was 1.42, the “translation of reporter mRNA, replicates” value ([3]; RocA 1 μM) was 0.8083 and 2.551 and 0.9008 and the “translation of reporter mRNA, Mean” value ([3]; RocA 10 μM) was 0.918. The “translation of reporter mRNA, replicates” value ([3]; RocA 10 μM) was 0.6256 and 1.131 and 0.9971, the “translation of reporter mRNA” value ([3]; polypurine motif reporter mRNA, Figure 3A) was “prevented the translation repression mediated by RocA” and the “translation of complex-preformed mRNA in RRL” value [4] was “could not alter translation”. For the same compound, the “translation of complex-preformed mRNA in RRL” value [5] was “could act as a translation repressor”.
